Assays:
[1] = test system: transepithelial passage of P31-43 in Caco-2 cells; test: Transepithelial transport of promofluor-conjugated gliadin peptide P31-43 across Caco-2 monolayers (fluorometry); assay type: cell-based, human; details: 1 µM and 100 µM inhibitor; 3 h
Method: Transepithelial transport of immunogenic and toxic gliadin peptides were examined in Caco-2 cells 7–14 days after confluency. Caco-2 cells were seeded on semi-permeable transwell supports (ThinCert, culture surface: 33.6 mm², pore size: 0.4 µm) in 24-well plates (Greiner Bio One, Pleidelsheim, Germany). Prior to the transport experiments, the integrity of the cell monolayer was tested by measuring the transepithelial electric resistance (TEER) using a volt-ohm meter (Millipore, Schwalbach, Germany). Monolayers with insufficient TEER (<350 Ω/cm^2) were omitted. The synthesis and purification of promofluor-conjugated gliadin peptides were described elsewhere. Cells were either incubated with the immunogenic peptide P56-88 ([…]) or the toxic gliadin peptide P31-43 (LGQQQPFPPQQPY), 7 µg/mL each, in Hank’s balanced salt solution (HBSS) for 3 h. To investigate the role of TG2 on the transport of gliadin peptides, incubation was performed in the presence of ERW1041 and PX-12. After 3 h, basal and apical supernatants were collected, and the relative fluorescence of the basal compartment was quantified using a FLUOstar Optima (BMG Labtech) microplate reader. Background subtraction was performed against conditions, where no labeled peptides were used. Normalization was performed against conditions, where no inhibitors were used.

[2] = given intravenously, clinical trials; rapid binding to plasma components; cited from earlier work
Text: This might be explained by rapid degradation or reduction of PX-12 by living cells. This is in line with observations in clinical trials, where PX-12 plasma levels were very low when given intravenously due to rapid binding to plasma components.

| Compound | transport of P31-43 [1] | plasma levels [2] |
| --- | --- | --- |
| O=C(NC[C@@H]1CC(Br)=NO1)[C@@H]1CCCN1C(=O)OCc1cnc2ccccc2c1 [ERW1041] | remained unaffected |  |
| CCC(C)SSc1ncc[nH]1 (centres unmarked) [PX-12, 2-[(1-methylpropyl)dithio]-1H-imidazole] |  | very low |

— article PMC10002517, “Inhibition of Transglutaminase 2 as a Therapeutic Strategy in Celiac Disease—In Vitro Studies in Intestinal Cells and Duodenal Biopsies” (International Journal of Molecular Sciences, 2023)
